The values below are quoted from earlier work in publication PMC10591956 (Journal of controlled release : official journal of the …, 2023).

SMILES strings stand for the structures.

In the series the test system is intraocular pressure (IOP). Particulars: single intracameral injection, normotensive rabbits.

Turning to `Brc1c(NC2=NCCN2)ccc2nccnc12` [brimonidine], the “duration of IOP reduction” value is reported as 7 days.
